Results: patent US12077503B2, “Substituted cyclic amides and their use as herbicides” (FMC CORPORATION, priority 2015, dated 2024)

Assays:
Type in all cases: in vivo
[1] = tested on: ivy-leaved morning glory (Ipomoea hederacea); assay: Test G Pre-Emergence Protocol; settings: Ipomoea, pre-emergence, 312 h, evaluated after 13 days; for pest or weed control at 15.625 g/ha: 15.625 g ai/ha; for pest or weed control at 15.625 g/ha / pest or weed control at 250 g/ha: read-out: Morningglory, Ivy-leaved damage rating (100=total damage to plant; 0=no damage to plant); for pest or weed control at 62.5 g/ha: 62.5 g ai/ha, 100=total damage to plant, 0=no damage to plant, read-out: Morningglory, Ivy-leaved damage rating; for pest or weed control at 250 g/ha: 250 g ai/ha
Summary of the method: (§1)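 One day after sowing, pots are treated with a spray of test compound formulated in acetone/water 50:50 plus 0.5% Tween 20, giving 15.625, 62.5 or 250 g/ha. Evaluation on a 0–100 damage scale follows 13 days of glasshouse growth.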

corn (Zea mays) [2] = assay: Test G Pre-Emergence Protocol; settings: Zea mays, pre-emergence, 312 h, evaluated after 13 days; for plant injury at 15.625 g/ha: 15.625 g ai/ha; for plant injury at 15.625 g/ha / plant injury at 250 g/ha: read-out: Corn damage rating (100=total damage to plant; 0=no damage to plant); for plant injury at 62.5 g/ha: 62.5 g ai/ha, 100=total damage to plant, 0=no damage to plant, read-out: Corn damage rating; for plant injury at 250 g/ha: 250 g ai/ha
Summary of the method: as §1

[3] = tested on: giant foxtail (Setaria faberi); assay: Test G Pre-Emergence Protocol; settings: Setaria faberi, pre-emergence, 312 h, evaluated after 13 days; for pest or weed control at 15.625 g/ha: 15.625 g ai/ha; for pest or weed control at 15.625 g/ha / pest or weed control at 250 g/ha: read-out: Foxtail, Giant damage rating (100=total damage to plant; 0=no damage to plant); for pest or weed control at 62.5 g/ha: 62.5 g ai/ha, 100=total damage to plant, 0=no damage to plant, read-out: Foxtail, Giant damage rating; for pest or weed control at 250 g/ha: 250 g ai/ha
Summary of the method: as §1

[4] = tested on: barnyardgrass (Echinochloa crus-galli); assay: Test G Pre-Emergence Protocol; settings: Echinochloa crus-galli, pre-emergence, 312 h, evaluated after 13 days; for pest or weed control at 15.625 g/ha: 15.625 g ai/ha; for pest or weed control at 15.625 g/ha / pest or weed control at 250 g/ha: read-out: Barnyardgrass damage rating (100=total damage to plant; 0=no damage to plant); for pest or weed control at 62.5 g/ha: 62.5 g ai/ha, 100=total damage to plant, 0=no damage to plant, read-out: Barnyardgrass damage rating; for pest or weed control at 250 g/ha: 250 g ai/ha
Summary of the method: as §1

[5] = tested on: redroot pigweed (Amaranthus retroflexus); assay: Test G Pre-Emergence Protocol; settings: Amaranthus retroflexus, pre-emergence, 312 h, evaluated after 13 days; for pest or weed control at 15.625 g/ha: 15.625 g ai/ha; for pest or weed control at 15.625 g/ha / pest or weed control at 250 g/ha: read-out: Pigweed, Redroot damage rating (100=total damage to plant; 0=no damage to plant); for pest or weed control at 62.5 g/ha: 62.5 g ai/ha, 100=total damage to plant, 0=no damage to plant, read-out: Pigweed, Redroot damage rating; for pest or weed control at 250 g/ha: 250 g ai/ha
Summary of the method: as §1

[6] = tested on: velvetleaf (Abutilon theophrasti); assay: Test G Pre-Emergence Protocol; settings: Abutilon theophrasti, pre-emergence, 312 h, evaluated after 13 days; for pest or weed control at 15.625 g/ha: 15.625 g ai/ha; for pest or weed control at 15.625 g/ha / pest or weed control at 250 g/ha: read-out: Velvetleaf damage rating (100=total damage to plant; 0=no damage to plant); for pest or weed control at 62.5 g/ha: 62.5 g ai/ha, 100=total damage to plant, 0=no damage to plant, read-out: Velvetleaf damage rating; for pest or weed control at 250 g/ha: 250 g ai/ha
Summary of the method: as §1

[7] = tested on: ivy-leaved morning glory (Ipomoea hederacea); assay: Test G Post-Emergence Protocol; settings: Ipomoea, post-emergence, 312 h, read-out: Morningglory, Ivy-leaved damage rating; for pest or weed control at 15.625 g/ha: 15.625 g ai/ha, evaluated after 13 days (100=total damage to plant; 0=no damage to plant); for pest or weed control at 62.5 g/ha: 62.5 g ai/ha; for pest or weed control at 62.5 g/ha / pest or weed control at 250 g/ha: evaluated after 13 days, 100=total damage to plant, 0=no damage to plant; for pest or weed control at 250 g/ha: 250 g ai/ha
Summary of the method: (§2)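 A glasshouse post-emergence test: 8-day-old plants sprayed at 15.625, 62.5 or 250 g/ha, then grown at 24/16 °C day/night with 14 h light and 65% humidity. Damage rated 13 days later, 0–100.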

corn (Zea mays) [8] = assay: Test G Post-Emergence Protocol; settings: Zea mays, post-emergence, 312 h, read-out: Corn damage rating; for plant injury at 15.625 g/ha: 15.625 g ai/ha, evaluated after 13 days (100=total damage to plant; 0=no damage to plant); for plant injury at 62.5 g/ha: 62.5 g ai/ha; for plant injury at 62.5 g/ha / plant injury at 250 g/ha: evaluated after 13 days, 100=total damage to plant, 0=no damage to plant; for plant injury at 250 g/ha: 250 g ai/ha
Summary of the method: as §2

[9] = tested on: giant foxtail (Setaria faberi); assay: Test G Post-Emergence Protocol; settings: Setaria faberi, post-emergence, 312 h, read-out: Foxtail, Giant damage rating; for pest or weed control at 15.625 g/ha: 15.625 g ai/ha, evaluated after 13 days (100=total damage to plant; 0=no damage to plant); for pest or weed control at 62.5 g/ha: 62.5 g ai/ha; for pest or weed control at 62.5 g/ha / pest or weed control at 250 g/ha: evaluated after 13 days, 100=total damage to plant, 0=no damage to plant; for pest or weed control at 250 g/ha: 250 g ai/ha
Summary of the method: as §2

[10] = tested on: barnyardgrass (Echinochloa crus-galli); assay: Test G Post-Emergence Protocol; settings: Echinochloa crus-galli, post-emergence, 312 h, read-out: Barnyardgrass damage rating; for pest or weed control at 15.625 g/ha: 15.625 g ai/ha, evaluated after 13 days (100=total damage to plant; 0=no damage to plant); for pest or weed control at 62.5 g/ha: 62.5 g ai/ha; for pest or weed control at 62.5 g/ha / pest or weed control at 250 g/ha: evaluated after 13 days, 100=total damage to plant, 0=no damage to plant; for pest or weed control at 250 g/ha: 250 g ai/ha
Summary of the method: as §2

[11] = tested on: redroot pigweed (Amaranthus retroflexus); assay: Test G Post-Emergence Protocol; settings: Amaranthus retroflexus, post-emergence, 312 h, read-out: Pigweed, Redroot damage rating; for pest or weed control at 15.625 g/ha: 15.625 g ai/ha, evaluated after 13 days (100=total damage to plant; 0=no damage to plant); for pest or weed control at 62.5 g/ha: 62.5 g ai/ha; for pest or weed control at 62.5 g/ha / pest or weed control at 250 g/ha: evaluated after 13 days, 100=total damage to plant, 0=no damage to plant; for pest or weed control at 250 g/ha: 250 g ai/ha
Summary of the method: as §2

[12] = tested on: velvetleaf (Abutilon theophrasti); assay: Test G Post-Emergence Protocol; settings: Abutilon theophrasti, post-emergence, 312 h, read-out: Velvetleaf damage rating; for pest or weed control at 15.625 g/ha: 15.625 g ai/ha, evaluated after 13 days (100=total damage to plant; 0=no damage to plant); for pest or weed control at 62.5 g/ha: 62.5 g ai/ha; for pest or weed control at 62.5 g/ha / pest or weed control at 250 g/ha: evaluated after 13 days, 100=total damage to plant, 0=no damage to plant; for pest or weed control at 250 g/ha: 250 g ai/ha
Summary of the method: as §2

Row | Structure (SMILES) | pest or weed control at 15.625 g/ha [1] | pest or weed control at 62.5 g/ha [1] | pest or weed control at 250 g/ha [1] | plant injury at 15.625 g/ha (corn (Zea mays) [2]) | plant injury at 62.5 g/ha (corn (Zea mays) [2]) | plant injury at 250 g/ha (corn (Zea mays) [2]) | pest or weed control at 15.625 g/ha [3] | pest or weed control at 62.5 g/ha [3] | pest or weed control at 250 g/ha [3] | pest or weed control at 15.625 g/ha [4] | pest or weed control at 62.5 g/ha [4] | pest or weed control at 250 g/ha [4] | pest or weed control at 15.625 g/ha [5] | pest or weed control at 62.5 g/ha [5] | pest or weed control at 250 g/ha [5] | pest or weed control at 15.625 g/ha [6] | pest or weed control at 62.5 g/ha [6] | pest or weed control at 250 g/ha [6] | pest or weed control at 15.625 g/ha [7] | pest or weed control at 62.5 g/ha [7] | further results
1 | CN1CC(c2ccc(F)c(OCC(F)(F)F)c2)C(C(=O)Nc2cccc(F)c2F)C1=O (stereo not drawn) [Compound 1718] | 0% | 0% | 10% | 0% | 50% | 80% | 60% | 80% | 90% | 60% | 70% | 90% | 0% | 0% | 60% | 0% | 0% | 50% | 10% | 60% | pest or weed control at 250 g/ha [7]: 70%; plant injury at 15.625 g/ha (corn (Zea mays) [8]): 30%; plant injury at 62.5 g/ha (corn (Zea mays) [8]): 50%; plant injury at 250 g/ha (corn (Zea mays) [8]): 80%; pest or weed control at 15.625 g/ha [9]: 70%; pest or weed control at 62.5 g/ha [9]: 80%; pest or weed control at 250 g/ha [9]: 80%; pest or weed control at 15.625 g/ha [10]: 50%; pest or weed control at 62.5 g/ha [10]: 70%; pest or weed control at 250 g/ha [10]: 80%; pest or weed control at 15.625 g/ha [11]: 30%; pest or weed control at 62.5 g/ha [11]: 40%; pest or weed control at 250 g/ha [11]: 70%; pest or weed control at 15.625 g/ha [12]: 20%; pest or weed control at 62.5 g/ha [12]: 40%; pest or weed control at 250 g/ha [12]: 60%
2 | CC(C)Oc1cc(OC(F)(F)F)cc(C2CN(C)C(=O)C2C(=O)Nc2cccc(F)c2F)c1 (stereo not drawn) [Compound 1726] | 0% | 0% | 0% | 0% | 0% | 30% | 10% | 50% | 80% | 0% | 50% | 70% | 0% | 0% | 10% | 0% | 0% | 0% | 10% | 10% | pest or weed control at 250 g/ha [7]: 70%; plant injury at 15.625 g/ha (corn (Zea mays) [8]): 10%; plant injury at 62.5 g/ha (corn (Zea mays) [8]): 30%; plant injury at 250 g/ha (corn (Zea mays) [8]): 70%; pest or weed control at 15.625 g/ha [9]: 0%; pest or weed control at 62.5 g/ha [9]: 70%; pest or weed control at 250 g/ha [9]: 70%; pest or weed control at 15.625 g/ha [10]: 0%; pest or weed control at 62.5 g/ha [10]: 30%; pest or weed control at 250 g/ha [10]: 70%; pest or weed control at 15.625 g/ha [11]: 20%; pest or weed control at 62.5 g/ha [11]: 0%; pest or weed control at 250 g/ha [11]: 40%; pest or weed control at 15.625 g/ha [12]: 0%; pest or weed control at 62.5 g/ha [12]: 0%; pest or weed control at 250 g/ha [12]: 20%
